Patent US6420571B2, “Methods for preparing antiviral calanolide compounds” (Sarawak MediChem Pharmaceuticals, Inc., priority 1999, dated 2002)
pEC50: −log10 of the molar value.

Assays:
[1] = tested on: pyridinone-resistant A17 virus; conditions: cited from earlier work
[2] = tested on: AZT-resistant G-9106 strain of HIV; conditions: cited from earlier work
HIV-1 [3] = conditions: down to a concentration of 0.1 μM; cited from earlier work
HIV-1 [4] = conditions: CEM-SS cells; read-out: EC50, HIV-1 replication; cited from earlier work

SMILES	melting point [°C]	activity against pyridinone-resistant A17 virus [1]	activity against AZT-resistant G-9106 strain of HIV [2]	protection against the cytopathic effects of HIV-1 (HIV-1 [3]) [%]	pEC50 (HIV-1 [4])
CCCc1cc(=O)oc2cc(OC(=O)C(C)(C)C)cc(O)c12	158 to 160	–	–	–	–
CCCc1cc(=O)oc2c3c(c4c(c12)OC(C)(C)C=C4)O[C@H](C)[C@@H](C)[C@@H]3O [(+)-calanolide A]	–	active	active	100	7.00
